Legend:
[1] = target: human CB1 receptors (Homo sapiens (Human), UniProt P21554); experiment: functional cAMP assay, CB1; type: cell-based; details: CHO cells expressing human CB1
Experimental: (§1) The growth medium was exchanged with Krebs Ringer Bicarbonate buffer with 1 mM IBMX and incubated at 30° C. for 30 min. Compounds were added to a final assay volume of 100 μl and incubated for 30 min at 30° C. Using the cAMP-Nano-TRF detection kit the assay (Roche Diagnostics) was stopped by the addition of 50 μl lysis reagent (Tris, NaCl, 1.5% Triton X100, 2.5% NP40, 10% NaN3) and 50 μl detection solutions (20 μM mAb Alexa700-cAMP 1:1, and 48 μM Ruthenium-2-AHA-cAMP) and shaken for 2 h at room temperature. The time-resolved energy transfer is measured by a TRF reader (Evotec Technologies GmbH), equipped with a ND:YAG laser as excitation source. The plate is measured twice with the excitation at 355 nm and at the emission with a delay of 100 ns and a gate of 100 ns, total exposure time 10 s at 730 (bandwidth 30 nm) or 645 nm (bandwidth 75 nm), respectively.
(§2) EC50 values were determined using Activity Base analysis (ID Business Solution, Limited).

[2] = target: human CB2 receptors (Homo sapiens (Human), UniProt P34972); experiment: functional cAMP assay, CB2; type: cell-based; details: CHO cells expressing human CB2
Experimental: as §1, §2

Sequence of human CB1 receptors (P21554 whole entry): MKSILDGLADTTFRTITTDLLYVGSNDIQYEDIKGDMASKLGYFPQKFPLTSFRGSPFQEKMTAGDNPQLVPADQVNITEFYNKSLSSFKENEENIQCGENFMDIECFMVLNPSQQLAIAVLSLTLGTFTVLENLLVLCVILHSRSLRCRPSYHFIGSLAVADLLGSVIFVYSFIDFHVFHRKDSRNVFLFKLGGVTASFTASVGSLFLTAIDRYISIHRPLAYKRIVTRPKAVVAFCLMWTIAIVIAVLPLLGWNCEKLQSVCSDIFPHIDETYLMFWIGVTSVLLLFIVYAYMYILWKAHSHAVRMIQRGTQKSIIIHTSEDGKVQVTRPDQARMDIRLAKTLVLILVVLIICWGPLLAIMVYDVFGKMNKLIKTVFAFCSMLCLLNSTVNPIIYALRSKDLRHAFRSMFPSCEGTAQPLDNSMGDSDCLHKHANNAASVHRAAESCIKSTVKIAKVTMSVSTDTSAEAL
Sequence of human CB2 receptors (P34972 whole entry): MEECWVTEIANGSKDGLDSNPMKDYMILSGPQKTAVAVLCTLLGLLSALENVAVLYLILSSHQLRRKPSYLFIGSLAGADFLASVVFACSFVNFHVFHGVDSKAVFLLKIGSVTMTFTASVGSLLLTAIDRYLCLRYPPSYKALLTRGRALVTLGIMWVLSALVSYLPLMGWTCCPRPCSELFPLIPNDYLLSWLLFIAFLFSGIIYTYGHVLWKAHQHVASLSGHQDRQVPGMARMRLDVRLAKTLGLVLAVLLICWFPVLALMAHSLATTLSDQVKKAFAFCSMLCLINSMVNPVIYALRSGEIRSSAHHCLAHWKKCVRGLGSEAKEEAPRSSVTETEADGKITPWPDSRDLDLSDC

Compound	EC50 [1] [µM]	EC50 [2] [µM]
CC(C)(C)c1nc(N2CCC(F)(F)C2)c2ncn(Cc3ccc(Cl)cc3)c2n1 [Example 1, 2-Tert-Butyl-9-[(4-Chlorophenyl)Methyl]-6-(3,3-Difluoropyrrolidin-1-Yl)Purine]	> 10	0.0116
CC(C)(C)c1nc(N2CCC(F)(F)C2)c2ncn(Cc3ccccc3Cl)c2n1 [Example 2, 2-tert-butyl-9-[(2-chlorophenyl)methyl]-6-(3,3-difluoropyrrolidin-1-yl)purine]	–	0.0006
Cc1ccc(Cn2cnc3c(N4CCC(F)(F)C4)nc(C(C)(C)C)nc32)cc1 [Example 3, 2-tert-butyl-6-(3,3-difluoropyrrolidin-1-yl)-9-[(4-methylphenyl)methyl]purine]	> 10	–
CC(C)(C)c1nc(N2CCC(F)(F)C2)c2ncn(Cc3ccc(F)cc3Cl)c2n1 [Example 4, 2-tert-butyl-9-[(2-chloro-4-fluorophenyl)methyl]-6-(3,3-difluoropyrrolidin-1-yl)purine]	> 10	0.0031
CC(C)(C)c1nc(N2CCC(F)(F)C2)c2ncn(Cc3ccccc3C(F)(F)F)c2n1 [Example 5, 2-tert-butyl-6-(3,3-difluoropyrrolidin-1-yl)-9-[[2-(trifluoromethyl)phenyl]methyl]purine]	–	0.0007
CC(C)(C)c1nc(N2CCC(F)(F)C2)c2ncn(Cc3cccnc3Cl)c2n1 [Example 6, 2-tert-butyl-9-[(2-chloropyridin-3-yl)methyl]-6-(3,3-difluoropyrrolidin-1-yl)purine]	–	0.0005
Cc1noc(Cn2cnc3c(N4CCC(F)(F)C4)nc(C(C)(C)C)nc32)n1 [Example 7, 5-[[2-tert-butyl-6-(3,3-difluoropyrrolidin-1-yl)purin-9-yl]methyl]-3-methyl-1,2,4-oxadiazole]	> 10	0.0347
CC(C)(C)c1nc(N2CCC(F)(F)C2)c2ncn(CC3CCCCC3)c2n1 [Example 8, 2-tert-butyl-9-(cyclohexylmethyl)-6-(3,3-difluoropyrrolidin-1-yl)purine]	> 10	0.0753
CCn1cnc2c(N3CCC(F)(F)C3)nc(C(C)(C)C)nc21 [Example 9, 2-tert-butyl-6-(3,3-difluoropyrrolidin-1-yl)-9-ethylpurine]	> 10	0.0488
CCCn1cnc2c(N3CCC(F)(F)C3)nc(C(C)(C)C)nc21 [Example 10, 2-tert-butyl-6-(3,3-difluoropyrrolidin-1-yl)-9-propylpurine]	> 10	–
Cc1nnc(Cn2cnc3c(N4CCC(F)(F)C4)nc(C(C)(C)C)nc32)o1 [Example 11, 2-[[2-tert-butyl-6-(3,3-difluoropyrrolidin-1-yl)purin-9-yl]methyl]-5-methyl-1,3,4-oxadiazole]	> 10	0.0617
CC(C)(C)c1nc(N2CCC(F)(F)C2)c2ncn(C3CCOC3)c2n1 (stereo not drawn) [Example 12, 2-tert-butyl-6-(3,3-difluoropyrrolidin-1-yl)-9-(oxolan-3-yl)purine]	> 10	0.0031
CC(C)(C)c1nc(N2CCC(F)(F)C2)c2ncn(CCc3ccccc3)c2n1 [Example 13, 2-tert-butyl-6-(3,3-difluoropyrrolidin-1-yl)-9-(2-phenylethyl)purine]	–	0.0054
Cn1nnnc1Cn1cnc2c(N3CCC(F)(F)C3)nc(C(C)(C)C)nc21 [Example 14, 2-tert-butyl-6-(3,3-difluoropyrrolidin-1-yl)-9-[(1-methyltetrazol-5-yl)methyl]purine]	> 10	0.023
COCCn1cnc2c(N3CCC(F)(F)C3)nc(C(C)(C)C)nc21 [Example 15, 2-tert-butyl-6-(3,3-difluoropyrrolidin-1-yl)-9-(2-methoxyethyl)purine]	> 10	–
Cc1nonc1Cn1cnc2c(N3CCC(F)(F)C3)nc(C(C)(C)C)nc21 [Example 16, 3-[[2-tert-butyl-6-(3,3-difluoropyrrolidin-1-yl)purin-9-yl]methyl]-4-methyl-1,2,5-oxadiazole]	> 10	0.006
CC(C)(C)c1nc(N2CCC(F)(F)C2)c2ncn(CC(=O)c3ccccc3Cl)c2n1 [Example 17, 2-[2-tert-butyl-6-(3,3-difluoropyrrolidin-1-yl)purin-9-yl]-1-(2-chlorophenyl)ethanone]	> 10	0.0035
CC(C)(C)c1nc(N2CCC(F)(F)C2)c2ncn(Cc3ccccc3S(C)(=O)=O)c2n1 [Example 18, 2-tert-butyl-6-(3,3-difluoropyrrolidin-1-yl)-9-[(2-methylsulfonylphenyl)methyl]purine]	> 10	0.0033
CC(C)(C)c1nc(N2CCC(F)(F)C2)c2ncn(CCC(F)(F)F)c2n1 [Example 19, 2-tert-butyl-6-(3,3-difluoropyrrolidin-1-yl)-9-(3,3,3-trifluoropropyl)purine]	> 10	–

Compound	EC50 [1] [µM]	EC50 [2] [µM]
CC(C)(C)c1nc(N2CCC(O)C2)c2ncn(Cc3ccc(Cl)cc3)c2n1 (stereo not drawn) [Example 26, 1-[2-tert-butyl-9-[(4-chlorophenyl)methyl]purin-6-yl]pyrrolidin-3-ol]	> 10	–
CCCn1cnc2c(N3CCC(O)C3)nc(C(C)(C)C)nc21 (stereo not drawn) [Example 36, 1-(2-tert-butyl-9-propylpurin-6-yl)pyrrolidin-3-ol]	> 10	–
CC(C)(C)c1nc(N2CCC(F)(F)C2)c2ncn(Cc3c[nH]nc3C(F)(F)F)c2n1 [Example 41, 2-tert-butyl-6-(3,3-difluoropyrrolidin-1-yl)-9-[[3-(trifluoromethyl)-1H-pyrazol-4-yl]methyl]purine]	–	0.0092
CC(=O)N[C@H]1CCN(c2nc(C(C)(C)C)nc3c2ncn3Cc2ccccc2Cl)C1 [Example 48, N—{(S)-1-[2-tert-Butyl-9-(2-chloro-benzyl)-9H-purin-6-yl]-pyrrolidin-3-yl}-acetamide]	> 10	–
CC(=O)N[C@H]1CCN(c2nc(C(C)(C)C)nc3c2ncn3Cc2nonc2C)C1 [Example 55, N—[(S)-1-[2-tert-butyl-9-[(4-methyl-1,2,5-oxadiazol-3-yl)methyl]purin-6-yl]pyrrolidin-3-yl]acetamide]	> 10	–
CC1(O)CCN(c2nc(C(C)(C)C)nc3c2ncn3Cc2ccc(Cl)cc2)C1 (stereo not drawn) [Example 66, 1-[2-tert-butyl-9-[(4-chlorophenyl)methyl]purin-6-yl]-3-methylpyrrolidin-3-ol]	> 10	–
Cc1nonc1Cn1cnc2c(N3CCC(C)(O)C3)nc(C(C)(C)C)nc21 (stereo not drawn) [Example 70, 1-[2-tert-butyl-9-[(4-methyl-1,2,5-oxadiazol-3-yl)methyl]purin-6-yl]-3-methylpyrrolidin-3-ol]	> 10	–
COCCn1cnc2c(N3CCC(C)(O)C3)nc(C(C)(C)C)nc21 (stereo not drawn) [Example 71, 1-[2-tert-butyl-9-(2-methoxyethyl)purin-6-yl]-3-methylpyrrolidin-3-ol]	> 10	–
CC(C)(C)c1nc(N2CC(F)(F)C(F)(F)C2)c2ncn(Cc3ccccc3Cl)c2n1 [Example 72, 2-tert-butyl-9-[(2-chlorophenyl)methyl]-6-(3,3,4,4-tetrafluoropyrrolidin-1-yl)purine]	> 10	–
Cc1nonc1Cn1cnc2c(N3CC(F)(F)C(F)(F)C3)nc(C(C)(C)C)nc21 [Example 82, 3-[[2-tert-butyl-6-(3,3,4,4-tetrafluoropyrrolidin-1-yl)purin-9-yl]methyl]-4-methyl-1,2,5-oxadiazole]	> 10	–
CC(C)(C)c1nc(N2CC[C@H](O)C2)c2ncn(Cc3ccc(Cl)cc3)c2n1 [Example 88, (3S)-1-[2-tert-butyl-9-[(4-chlorophenyl)methyl]purin-6-yl]pyrrolidin-3-ol]	> 10	–
Cc1nnc(Cn2cnc3c(N4CCC(F)(F)C4)nc(NC(C)(C)C)nc32)o1 [Example 109, N-tert-butyl-6-(3,3-difluoropyrrolidin-1-yl)-9-[(5-methyl-1,3,4-oxadiazol-2-yl)methyl]purin-2-amine]	> 10	–
CC(C)(C)Nc1nc(N2CC[C@H](O)C2)c2ncn(Cc3c[nH]nc3C(F)(F)F)c2n1 [Example 122, (3S)-1-[2-(tert-butylamino)-9-[[3-(trifluoromethyl)-1H-pyrazol-4-yl]methyl]purin-6-yl]pyrrolidin-3-ol]	> 10	–
CC(C)(C)Nc1nc(N2CC3(COC3)C2)c2ncn(Cc3ccccc3C(F)(F)F)c2n1 [Example 137, N-tert-butyl-6-(2-oxa-6-azaspiro[3.3]heptan-6-yl)-9-[[2-(trifluoromethyl)phenyl]methyl]purin-2-amine]	> 10	–
Cc1nonc1Cn1cnc2c(N3CCN(C)CC3)nc(C(C)(C)C)nc21 [Example 144, 3-[[2-tert-butyl-6-(4-methylpiperazin-1-yl)purin-9-yl]methyl]-4-methyl-1,2,5-oxadiazole]	> 10	–
CC(C)(C)c1nc(N2CCC[C@@H]2CO)c2ncn(Cc3nnnn3C3CC3)c2n1 [Example 146, [(2R)-1-[2-tert-butyl-9-[(1-cyclopropyltetrazol-5-yl)methyl]purin-6-yl]pyrrolidin-2-yl]methanol]	> 10	–
CC(C)(C)c1nc(N2CC(F)(F)C2)c2ncn(Cc3ncccc3Cl)c2n1 [Example 160, 2-tert-butyl-9-[(3-chloropyridin-2-yl)methyl]-6-(3,3-difluoroazetidin-1-yl)purine]	> 10	–
CC(C)(C)c1nc(N2CC[C@H](O)C2)c2ncn(Cc3nnnn3C(C)(C)C)c2n1 [Example 166, (3S)-1-[2-tert-butyl-9-[(1-tert-butyltetrazol-5-yl)methyl]purin-6-yl]pyrrolidin-3-ol]	> 10	–

Reference: US9505762B2, “Purine derivatives as CB2 receptor agonists” (Hoffmann-La Roche Inc., priority 2013, dated 2016)
